Our source for the Ki values is BindingDB's records for doi:10.1021/jm990200p (Synaptic Pharmaceutical, 1999).

The Ki is a measure of affinity in units of concentration, obtained from inhibition or displacement.

The nature of this test: In vitro binding affinity against Alpha-1A adrenergic receptor in isolated prostate tissue of dog.

Turning to `CCC1=C(C(N)=O)C(c2ccc(F)c(F)c2)N(C(=O)NCCCN2CCC(C(=O)OC)(c3ccccc3)CC2)C(=O)N1` (stereo unspecified) [1-(3-{[5-Carbamoyl-6-(3,4-difluoro-phenyl)-4-ethyl-2-oxo-3,6-dihydro-2H-pyrimidine-1-carbonyl]-amino}-propyl)-4-phenyl-piperidine-4-carboxylic acid methyl ester], the inhibition constant Ki amounted to 1.3 nM.
